Assay [1] has as its system primary mouse hippocampal neurons. The assay can be described thus: NMDA receptor induced mitochondrial membrane potential breakdown (Rh123 imaging). It is filed as cell-based. The procedure: Coverslips with primary cultured neurons (DIV15-DIV17) were used to examine mitochondrial membrane potential (Ψm) and mitochondrial calcium signalling, which was performed at room temperature in CO2-independent culture medium (CICM) containing: 10 mM HEPES, 140 mM NaCl, 2.5 mM KCl, 1.0 mM MgCl2, 2.0 mM CaCl2, 1.0 mM Glycine, 35.6 mM Glucose and 0.5 mM Na-pyruvate. All images were obtained by a cooled-CCD camera (iXon 887, Andor) on an upright microscope (BX51WI, Olympus). Fluorescence excitation was provided by a xenon arc lamp in combination with an excitation filter wheel (MT-20, Olympus). Data were collected using Cell^R software (Olympus), analysed using ImageJ and quantified using Igor Pro (WaveMetrics). Ψm was detected with the small molecule fluorescence indicator Rhodamine 123 (Rh123; Molecular Probe™, R302). Primary cultured neurons were loaded with 4.3 μM Rh123 in CICM at 37° C. for 30 min, then washed and left in CICM for another 30 min before recording. At the end of each experiment, the mitochondrial uncoupler FCCP (5 μM, Sigma-Aldrich, Cat #C2920) was applied to the cells to reach the maximal Rh123 fluorescence intensity. Rh123 was imaged with 470±20 nm excitation and 525±25 nm emission wavelengths using a 20× objective. Rh123 fluorescence intensity was measured in the nucleus to minimize contamination from cytosolic mitochondrial signal and Rh123 fluorescence intensity was normalized to the maximum FCCP signal for each region of interest.
Mitochondrial dysfunction is a hallmark of NMDA receptor excitotoxicity and an early event en-route to neuronal death. A parameter that is often used to assess mitochondrial integrity is the mitochondrial membrane potential. A breakdown of the mitochondrial membrane potential can be observed after exposure of hippocampal or cortical neurons to NMDA and indicates excitotoxicity-associated mitochondrial dysfunction. Therefore, the inventors investigated the effect of polypeptides comprising the sequence of SEQ ID NO:5 or SEQ ID NO: 54 as well as of the control TRMP5 sequence (SEQ ID NO: 55) on mitochondrial membrane potential break down in primary mouse hippocampal neurons. Excitotoxicity leading to mitochondrial membrane potential break down was induced with bath application of 20 μM NMDA. After 11 minutes, the mitochondrial uncoupler, carbonylcyanide-p-trifluoromethoxyphenylhydrazone (FCCP) was added. Addition of FCCP leads to break-down of the mitochondrial membrane potential and served as a control of the test system.

The test system of assay [2] is retinal ganglion cells (RGCs). The assay can be described thus: NMDA-induced degeneration of retinal ganglion cells (RGCs) in mice. It counts as in vivo, mouse. The following applies: 40 mg/kg i.p. at -16h, -3h, 0 h, +24 h, intravitreal NMDA 20 nmol, 7 days. The procedure: The inventors also assessed, whether compound P4 can protect retinal ganglion cells against NMDA-induced degeneration. For this purpose, 28 C57BL/6J mice (25±3.5 g) were randomly allocated to two groups. All mice received vehicle (sunflower oil containing 5% ethanol) or P4 (40 mg/kg, dissolved in sunflower oil containing 5% ethanol) through intraperitoneal injection at −16h, −3h, 0 h, +3 h and +24 h in a volume of 50 μL each injection. At 0 h, mice received 20 nmol of NMDA (total volume 2.0 μL) by intravitreal injection in the left eye and saline (total volume 2.0 μL) in the right eye. Both eyes were removed from euthanized mice 7 days after intravitreal injections and fixed in formalin for 15 min before retinas were dissected and processed for whole mount immunostaining. Retinas were incubated in blocking solution (10% FBS, 1% Triton-X 100 in PBS) for 6 h, followed by 24 h incubation with anti-Brn3a antibody in blocking solution at 4° C. Retinas were washed 3 times with PBS and incubated with Donkey anti-rabbit Alexa Fluor-594 for 24 h at room temperature. Retinas were washed again, cut and mounted onto slides. […] Brn3a-positive cells were identified and counted with a macro in Cellprofiler. […]

Consider “SEQ ID NO:5: polypeptide, amino acid residues 633-689 of mouse TRPM4 (NSEERAARLLLRRCPLWGEATCLQLAMQADARAFFAQDGVQSLLTQKWWGEMDSTTP; listed as Mus musculus)”, for which, in assay [1] (polypeptides expressed via rAAV, bath application of 20 μM NMDA), the “NMDA receptor induced mitochondrial membrane potential breakdown” value is recorded as “capable of preventing NMDA receptor induced mitochondrial membrane potential breakdown”.
In the case of `CCN(CCN)Cc1cccc(Br)c1` [P4], the “retinal ganglion cell (RGC) degeneration (Brn3a-positive cells)” value in assay [2] was “reduces retinal ganglion cell (RGC) degeneration”. Moreover, the “protection of mitochondrial membrane potential from NMDA excitotoxicity” value in assay [1] (compound applied 30 min prior to recording, bath application of NMDA) was “significantly protect mitochondrial membrane potential from NMDA excitotoxicity”.

The record behind these values is patent US20260242440A1, “NOVEL MEANS TO MODULATE NMDA RECEPTOR-MEDIATED TOXICITY” (FUNDAMENTAL PHARMA GMBH, priority 2018, published 2026).
